Assay results as given in US20240415753A1, “DEODORANT COMPOSITIONS COMPRISING CARBOXYLIC ACIDS” (The Procter & Gamble Company, priority 2023, published 2024).

Tests used:
[1] = Surface tension of carboxylic acid at 2 wt % in water (Wilhelmy plate); type: physicochemical; details: 2 wt % solution of the carboxylic acid in water; average of 3 samples
Description: Surface tension was measured using surface tension measurement, described herein. […] Surface tension of a sample is calculated as the average of the last 5 measured values. […] The average of the last 5 values is used to calculate surface tension of a sample. Surface Tension is measured by ASTM […]-20 Method C-Surface Tension by […] plate. For accurate measurement, the Surface Tension measurement should be allowed to equilibrate over the course of at least 1 minute, or at least 2 minutes, or longer depending on the sample. Properly equilibrated surface tension measurement is evaluated by not seeing a change in the surface tension measurement across multiple data points at the end of the measurement time period. The sample is run for a longer period of time if the surface tension measurement is continuing to change across multiple data points at the end of the measurement time period. […] The average of the last 5 values collected is used to calculate surface tension of a sample.

[2] = test system: mock community of five underarm species (3 Staphylococcus and 2 Corynebacterium); test: MIC of various carboxylic acids (Optical Density MIC 95); type: cell-based; details: pH 5, Tryptic Soy Broth, initial concentration 1000 ppm, ~24 hours at 37° C., OD 600 nm
Text: The following MIC (Minimum Inhibitory Concentration) was done on various carboxylic acids. The MIC is the lowest concentration of active compound at which no growth of the microorganism is observed macroscopically. […] Tryptic Soy Broth is used in the measurements below as a standard diluent for testing MIC. Initial concentration is the highest concentration tested in this experiment. […] The results shown in Table 7 below indicate that carboxylic acids have the ability to inhibit bacteria growth. […] The MIC or minimum inhibitory concentration test determines antimicrobial activity of a material against a specific bacteria. The most commonly employed methods are the tube dilution method and agar dilution method. Test products that are not clear or precipitate the growth media are tested by agar dilution method which is similar to the tube dilution method except dilutions are plated on agar. The tube dilution test is the standard method for determining levels of microbial resistance to an antimicrobial agent. Serial dilutions of the test agent are made in a liquid microbial growth medium which is inoculated with a standardized number of organisms and incubated for a prescribed time. The lowest concentration (highest dilution) of test agent preventing appearance of turbidity (growth) is considered to be the minimal/minimum inhibitory concentration (MIC). At this dilution the test agent is bacteriostatic. […] This measurement is referred to as optical density.

[3] = Surface tension of solvents at 50 wt % in water (Wilhelmy plate); type: physicochemical; details: solvent at 50 wt % in water; average of 3 samples
Text: In addition, carboxylic acids may be used in deodorant compositions that are desired to be clear. For the composition to appear clear, the refractive index of the polar and nonpolar phases may not vary too much. For example, for a clear appearance of a polar in nonpolar emulsion, a significant amount of material with high refractive index, water soluble solvents or emollients (for example glycols, polyethers, diols, glycerin, or mixtures thereof), can be added to the polar phase to match the refractive index of water (1.333) to silicone (1.40). […] Surface tension is measured for mixtures of solvents at 50 wt % in water. Surface tension was measured using the surface tension measurement, as described in the Test Method section herein. Measurement time period was 1 minute with 30 values measured over the measurement time period. Surface tension of a sample is calculated as the average of the last 5 measured values. Each reported value is an average of 3 samples measured.
Surface Tension is measured by ASTM D1331-20 Method C-Surface Tension by Willhelmy plate. […] Properly equilibrated surface tension measurement is evaluated by not seeing a change in the surface tension measurement across multiple data points at the end of the measurement time period. […] A minimum of 30 measured values are collected during the measurement time period. […]

| SMILES | Surface Tension when measured at 2 wt % in Water [1] | MIC [2] | Surface Tension when measured at 50 wt % in Water [3] |
| --- | --- | --- | --- |
| O=C1O[C@H]([C@@H](O)CO)C(O)=C1O [Ascorbic Acid] | 72.4 mN/m | – | – |
| O=C(O)CC(O)(CC(=O)O)C(=O)O [Citric Acid] | 71.3 mN/m | – | – |
| O=C(O)/C=C/C(=O)O [Fumaric Acid] | – | 250 µg/mL | – |
| OCC(O)CO [Glycerin] | – | – | 68.6 mN/m |
| O=C(O)CO [Glycolic Acid] | 71.1 mN/m | – | – |
| CC(O)C(=O)O (centres unmarked) [Lactic Acid] | 63.7 mN/m | 1000 µg/mL | – |
| O=C(O)/C=C\C(=O)O [Maleic Acid] | – | 1000 µg/mL | – |
| O=C(O)CC(O)C(=O)O (centres unmarked) [Malic Acid] | 71.8 mN/m | 500 µg/mL | – |
| O=C(O)C(O)c1ccccc1 (centres unmarked) [Mandelic Acid] | 63.7 mN/m | 1000 µg/mL | – |
| CC(O)CO (centres unmarked) [Propylene Glycol (PG), Propylene Glycol] | – | – | 44.6 mN/m |
| O=C(O)c1ccccc1O [Salicylic Acid] | – | 125 µg/mL | – |
| O=C(O)CCC(=O)O [Succinic Acid] | 69.8 mN/m | 1000 µg/mL | – |
| O=C(O)C(O)C(O)C(=O)O (centres unmarked) [Tartaric Acid] | – | 250 µg/mL | – |
